Our source for the IC50 values is patent publication US9630914B2, “Multitarget FAAH and COX inhibitors and therapeutical uses thereof” (FONDAZIONE ISTITUTO ITALIANO DI TECNOLOGIA, priority 2012, dated 2017).

Usually IC50 stands for the concentration needed to halve the response being measured.

Format in all cases: biochemical
One assay has as its target ovine COX-1 (Ovis aries (Sheep), UniProt P05979). In words: In vitro COX assay (COX Inhibitor Screening Assay Kit), COX-1. The note with it: 5 μM arachidonic acid. The method, then:
(§1) COX activity was measured using a commercial kit (COX Inhibitor Screening Assay Kit—Cayman Chemical N. 560131) which includes both ovine COX-1 and human recombinant COX-2 enzymes. Inhibitors were pre-incubated with either ovine COX-1 or human COX-2 in order to screen isozyme-specific inhibition. Differently than described in the kit protocol, the reaction was carried out in the presence of 5 μM arachidonic acid while for the blank sample (no activity) the two enzymes were inactivated for 40 minutes at 100° C. It was then measured the amount of PGF2α produced by reduction with SnCl2 of COX-derived PGH2, via enzyme immunoassay (EIA) using a PG-specific antibody and competing with a PG-acetylcholinesterase conjugate.
(§2) Absorbance was measured at 412 nm with a Tecan Infinite M200 plate reader and data were processed according to manufacturer's instructions.
(§3) The median inhibitory concentrations (IC50) were determined by non-linear regression analysis of the Log [concentration]/response curves generated with mean replicate values using a four parameter Hill equation curve fitting with GraphPad Prism 5 (GraphPad Software Inc., CA-USA).

Another assay has as its target Rat FAAH (Rattus norvegicus (Rat), UniProt P97612). In words: In vitro rat FAAH radiometric assay. The note with it: rat brain homogenate; means of ≧3 experiments in duplicate. The method, then: In Vitro Rat FAAH Radiometric Assay
Rat FAAH was prepared from male Sprague Dawley rat brains, homogenized in a potter in 20 mM of Tris HCl pH 7.4, 0.32 M sucrose.
After 10 minutes of pre-incubation with test compounds, the reaction was started by adding of 50 μL of substrate and incubating for 30 min at 37° C. The substrate was prepared in assay buffer in order to achieve the final concentration of 1 μM arachidonoyl ethanolamide (Cayman Chemical N. 90050) and 0.6 nM anandamide [ethanolamine-1-^3H](American Radiolabeled Chemicals Inc., ART. 0626, conc. 1 mCi/mL, S.A. 60 Ci/mmol). The reaction was stopped by adding cold 1:1 CHCl3/MeOH. After 10 minutes of centrifugation (845×g at 4° C.) 600 μL of aqueous phase were transferred into scintillation vials previously filled with 3 mL of scintillation fluid (Ultima Gold™, Perkin Elmer Inc., Cat. 6013329). Radioactivity was measured by liquid scintillation counting (MicroBeta2 LumiJET Perkin Elmer Inc.).
as §3

The target of a further assay is human recombinant COX-2 (Homo sapiens (Human), UniProt P35354). The experiment in a line: In vitro COX assay (COX Inhibitor Screening Assay Kit), COX-2. The method, then:
as §1, §2, §3

For a further assay, the target named is human FAAH-1 (Homo sapiens (Human), UniProt O00519). In words: In vitro human FAAH fluorescent assay. As to conditions: human FAAH-1 membrane preparation from HEK-293; means of ≧3 experiments. The method, then: In Vitro Human FAAH Fluorescent Assay
Sequence of human FAAH-1 (O00519 whole entry): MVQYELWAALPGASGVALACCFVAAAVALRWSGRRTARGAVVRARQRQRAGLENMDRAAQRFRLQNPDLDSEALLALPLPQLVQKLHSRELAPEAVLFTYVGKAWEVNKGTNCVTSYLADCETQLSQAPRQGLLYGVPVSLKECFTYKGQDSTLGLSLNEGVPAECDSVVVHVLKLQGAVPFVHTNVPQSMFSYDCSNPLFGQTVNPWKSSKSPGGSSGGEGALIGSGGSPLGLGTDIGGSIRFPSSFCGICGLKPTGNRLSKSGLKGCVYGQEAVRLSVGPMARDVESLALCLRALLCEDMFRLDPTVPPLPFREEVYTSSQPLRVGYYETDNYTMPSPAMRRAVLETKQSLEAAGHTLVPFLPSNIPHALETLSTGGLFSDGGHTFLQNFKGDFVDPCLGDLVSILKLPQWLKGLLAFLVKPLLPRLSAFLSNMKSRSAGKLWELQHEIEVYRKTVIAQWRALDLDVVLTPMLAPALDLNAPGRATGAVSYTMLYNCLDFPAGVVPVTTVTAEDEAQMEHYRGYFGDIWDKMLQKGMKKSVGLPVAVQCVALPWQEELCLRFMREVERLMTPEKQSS
Human recombinant FAAH was obtained from a HEK-293 FAAH-1 overexpressing stable cell line. Cells were grown in DMEM medium containing 10% FBS, 1% pen/strep, 1% glutamine and 500 μg/mL G418. To obtain membrane preparation cells were scraped off with cold phosphate-buffered saline (PBS) and collected by centrifugation (500×g, 10 minutes, 4° C.); the cell pellet was re-suspended in 20 mM Tris-HCl pH 7.4, 0.32 M sucrose, disrupted by sonication (10 pulses, 5 times) and centrifuged (800×g, 15 minutes, 4° C.); the collected supernatant was centrifuged at 105,000×g for 1 h at 4° C. and the pellet was re-suspended in PBS.
The background (no activity) samples were prepared using 180 μL of assay buffer without human FAAH-1 and 10 μL of DMSO. The reaction was then started by the addition of 10 μL of substrate (AMC arachidonyl amide, N. 10005098, Cayman Chemical) dissolved in ethanol and used at a final concentration of 2 μM. The reaction was carried out for 30 minutes at 37° C. and fluorescence was measured with a Tecan Infinite M200 nanoquant plate reader (excitation wavelength 350 nm/emission wavelength 460 nm).
as §3

Where [1] appears, read: 5 μM arachidonic acid, read-out: human COX-2 IC50.

Where two headings read alike, the source gives them in different places.

Sequence of Rat FAAH (P97612 whole entry): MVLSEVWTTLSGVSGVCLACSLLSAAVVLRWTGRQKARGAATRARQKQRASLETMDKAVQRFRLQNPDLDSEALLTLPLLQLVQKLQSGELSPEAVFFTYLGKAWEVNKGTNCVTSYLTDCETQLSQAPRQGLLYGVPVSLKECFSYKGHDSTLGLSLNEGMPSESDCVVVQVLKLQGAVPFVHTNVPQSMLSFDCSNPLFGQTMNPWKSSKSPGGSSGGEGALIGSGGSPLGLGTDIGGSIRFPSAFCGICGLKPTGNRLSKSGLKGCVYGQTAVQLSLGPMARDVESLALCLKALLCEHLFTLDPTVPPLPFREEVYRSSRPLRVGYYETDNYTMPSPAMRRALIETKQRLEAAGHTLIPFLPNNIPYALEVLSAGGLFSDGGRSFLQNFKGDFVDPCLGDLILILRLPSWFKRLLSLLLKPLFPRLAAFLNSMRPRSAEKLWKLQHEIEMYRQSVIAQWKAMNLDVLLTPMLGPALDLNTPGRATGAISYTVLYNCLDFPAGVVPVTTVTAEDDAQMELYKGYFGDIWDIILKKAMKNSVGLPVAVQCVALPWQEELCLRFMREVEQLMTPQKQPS
Sequence of human recombinant COX-2 (P35354 18-604): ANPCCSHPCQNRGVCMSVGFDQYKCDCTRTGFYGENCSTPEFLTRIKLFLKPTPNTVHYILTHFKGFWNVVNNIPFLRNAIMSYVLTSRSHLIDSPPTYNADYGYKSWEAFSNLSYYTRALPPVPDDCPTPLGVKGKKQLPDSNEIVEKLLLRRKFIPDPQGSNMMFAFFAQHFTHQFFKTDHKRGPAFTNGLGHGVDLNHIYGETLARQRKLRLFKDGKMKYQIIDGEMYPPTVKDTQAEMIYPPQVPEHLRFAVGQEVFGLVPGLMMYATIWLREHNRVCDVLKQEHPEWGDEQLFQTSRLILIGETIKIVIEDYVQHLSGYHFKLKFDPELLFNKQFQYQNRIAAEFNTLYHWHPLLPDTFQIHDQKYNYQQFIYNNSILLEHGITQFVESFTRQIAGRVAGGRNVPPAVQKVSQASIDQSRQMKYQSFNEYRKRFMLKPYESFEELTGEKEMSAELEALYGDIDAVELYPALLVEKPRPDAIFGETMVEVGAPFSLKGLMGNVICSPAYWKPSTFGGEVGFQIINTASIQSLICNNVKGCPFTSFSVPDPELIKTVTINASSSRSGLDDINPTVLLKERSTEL
Sequence of ovine COX-1 (P05979 25-600): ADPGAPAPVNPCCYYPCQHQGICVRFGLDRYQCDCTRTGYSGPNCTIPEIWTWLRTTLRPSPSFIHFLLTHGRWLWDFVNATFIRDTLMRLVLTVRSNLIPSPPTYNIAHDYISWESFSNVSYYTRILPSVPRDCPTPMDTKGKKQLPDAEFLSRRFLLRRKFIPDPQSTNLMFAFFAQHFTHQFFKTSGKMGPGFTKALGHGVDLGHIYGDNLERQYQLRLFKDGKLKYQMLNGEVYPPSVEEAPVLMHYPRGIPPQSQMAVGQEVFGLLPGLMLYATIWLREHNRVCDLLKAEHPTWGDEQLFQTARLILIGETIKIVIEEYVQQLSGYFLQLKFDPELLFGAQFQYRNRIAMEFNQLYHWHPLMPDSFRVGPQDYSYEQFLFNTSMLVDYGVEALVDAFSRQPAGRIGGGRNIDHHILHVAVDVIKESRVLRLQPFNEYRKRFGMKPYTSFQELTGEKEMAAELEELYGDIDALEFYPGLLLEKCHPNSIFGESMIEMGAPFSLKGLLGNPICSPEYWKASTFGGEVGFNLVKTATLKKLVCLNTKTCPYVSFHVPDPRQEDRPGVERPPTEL

As to `CCCCCCNC(=O)Oc1cccc(-c2ccc(C(C)C(=O)O)cc2F)c1` (single isomer, unassigned; (+)) [Example 20, (+)-2-[3-fluoro-4-[3-(hexylcarbamoyloxy)phenyl]phenyl]propanoic acid], half-maximal inhibition on ovine COX-1 (IC50) was put at 0.01 nM.

In turn, `CCCCCCNC(=O)Oc1cccc(-c2ccc(C(C)C(=O)O)cc2F)c1` (single isomer, unassigned; (-)) [Example 19, (−)-2-[3-fluoro-4-[3-(hexylcarbamoyloxy)phenyl]phenyl]propanoic acid] returned an IC50 against ovine COX-1 of 13000 nM.

As to `CC(C(=O)O)c1ccc(-c2cccc(OC(=O)NC3CCCCC3)c2)c(F)c1` (stereo not shown) [Example 1, 2-[4-[3-(cyclohexylcarbamoyloxy)phenyl]-3-fluoro-phenyl]propanoic acid], the IC50 is 7900 nM against ovine COX-1, 8200 nM at Rat FAAH, greater than 30000 nM at human recombinant COX-2 and 1800 nM at human FAAH-1.

As to `CC(C(=O)O)c1ccc(-c2cccc(OC(=O)NC3CCCC3)c2)c(F)c1` (stereo not shown) [Example 2, 2-[4-[3-(cyclopentylcarbamoyloxy)phenyl]-3-fluoro-phenyl]propanoic acid], the half-maximal inhibitory concentration (IC50) at ovine COX-1 was 4400 nM; at Rat FAAH it was 4800 nM; at human recombinant COX-2 it was greater than 30000 nM; at human FAAH-1 it was 1800 nM.

For the compound `CC(C)CNC(=O)Oc1cccc(-c2ccc(C(C)C(=O)O)cc2F)c1` (stereo not shown) [Example 3, 2-[3-fluoro-4-[3-(isobutylcarbamoyloxy)phenyl]phenyl]propanoic acid], the IC50 was 8200 nM against ovine COX-1, 5600 nM at Rat FAAH, greater than 30000 nM on human recombinant COX-2 and 1600 nM on human FAAH-1.

With `CC(C(=O)O)c1ccc(-c2cccc(OC(=O)NCC3CCCCC3)c2)c(F)c1` (stereo not shown) [Example 4, 2-[4-[3-(cyclohexylmethylcarbamoyloxy)phenyl]-3-fluoro-phenyl]propanoic acid], the half-maximal inhibitory concentration (IC50) is 600 nM on ovine COX-1, 360 nM against Rat FAAH, greater than 30000 nM on human recombinant COX-2 and 280 nM on human FAAH-1.

For `CC(C(=O)O)c1ccc(-c2cccc(OC(=O)NCCC3CCCCC3)c2)c(F)c1` (stereo not shown) [Example 5, 2-[4-[3-(2-cyclohexylethylcarbamoyloxyl)phenyl]-3-fluoro-phenyl]propanoic acid], the 50% inhibitory concentration (IC50) against ovine COX-1 came to 150 nM; at Rat FAAH it was 18 nM; at human recombinant COX-2 (setting [1]), 11000 nM; at human FAAH-1, 9 nM.

For `CC(C(=O)O)c1ccc(-c2cccc(OC(=O)NCc3ccccc3)c2)c(F)c1` (stereo not shown) [Example 6, 2-[4-[3-(benzylcarbamoyloxy)phenyl]-3-fluoro-phenyl]propanoicacid], the 50% inhibitory concentration (IC50) on ovine COX-1 is 1300 nM; against Rat FAAH, 4200 nM; at human recombinant COX-2, greater than 30000 nM; against human FAAH-1, 7200 nM.

In the case of `CC(C(=O)O)c1ccc(-c2cccc(OC(=O)NCCc3ccccc3)c2)c(F)c1` (stereo not shown) [Example 7, 2-[3-fluoro-4-[3-(phenethylcarbamoyloxy)phenyl]phenyl]propanoic acid], the IC50 is 6300 nM on ovine COX-1, 170 nM at Rat FAAH, greater than 30000 nM at human recombinant COX-2 and 70 nM at human FAAH-1.

`CC(C(=O)O)c1ccc(-c2cccc(OC(=O)NCCCc3ccccc3)c2)c(F)c1` (stereo not shown) [Example 8, 2-[3-fluoro-4-[3-(3-phenylpropylcarbamoyloxyl)phenyl]phenyl]propanoic acid]: the half-maximal inhibitory concentration (IC50) on ovine COX-1 is 580 nM; against Rat FAAH, 90 nM; at human recombinant COX-2 (setting [1]), 6200 nM; against human FAAH-1 it was 22 nM.

For `CC(C(=O)O)c1ccc(-c2cccc(OC(=O)NCCCCc3ccccc3)c2)c(F)c1` (stereo not shown) [Example 9, 2-[3-fluoro-4-[3-(4-phenylbutylcarbamoyloxyl)phenyl]phenyl]propanoic acid], the concentration for half-maximal inhibition (IC50) at ovine COX-1 is 3700 nM; against Rat FAAH, 27 nM; at human recombinant COX-2, greater than 30000 nM; on human FAAH-1, 13 nM.

Consider `CCCCNC(=O)Oc1cccc(-c2ccc(C(C)C(=O)O)cc2F)c1` (stereo not shown) [Example 10, 2-[4-[3-(butylcarbamoyloxy)phenyl]-3-fluoro-phenyl]propanoic acid], for which the IC50 is 260 nM on ovine COX-1, 7000 nM at Rat FAAH, greater than 30000 nM on human recombinant COX-2 and 1500 nM at human FAAH-1.

Take `CCCCCNC(=O)Oc1cccc(-c2ccc(C(C)C(=O)O)cc2F)c1` (stereo not shown) [Example 11, 2-[3-fluoro-4-[3-(pentylcarbamoyloxy)phenyl]phenyl]propanoic acid]: the IC50 was found to be 20 nM at ovine COX-1, 570 nM against Rat FAAH, 160 nM on human recombinant COX-2 (setting [1]) and 92 nM on human FAAH-1.

On to `CCCCCCCNC(=O)Oc1cccc(-c2ccc(C(C)C(=O)O)cc2F)c1` (stereo not shown) [Example 13, 2-[3-fluoro-4-[3-(heptylcarbamoyloxy)phenyl]phenyl]propanoic acid], for which the IC50 came out at 370 nM against ovine COX-1, 11 nM on Rat FAAH, 320 nM at human recombinant COX-2 (setting [1]) and 6 nM on human FAAH-1.

In the case of `CCCCCCCCNC(=O)Oc1cccc(-c2ccc(C(C)C(=O)O)cc2F)c1` (stereo not shown) [Example 14, 2-[3-fluoro-4-[3-(octylcarbamoyloxy)phenyl]phenyl]propanoic acid], the IC50 stood at 990 nM at ovine COX-1, 2.6 nM against Rat FAAH, 29000 nM on human recombinant COX-2 (setting [1]) and 4 nM at human FAAH-1.

On to `CCCCCCNC(=O)Oc1cccc(-c2ccc(C(C)CO)cc2F)c1` (stereo not shown) [Example 15, [3-[2-fluoro-4-(2-hydroxy-1-methyl-ethyl)phenyl]phenyl]N-hexylcarbamate], for which the 50% inhibitory concentration (IC50) against ovine COX-1 is 1100 nM; against Rat FAAH it was 3.3 nM; on human recombinant COX-2, greater than 30000 nM; on human FAAH-1, 9.1 nM.

As to `CCCCCCNC(=O)Oc1cccc(-c2ccc(CC(=O)O)cc2F)c1` [Example 16, 2-[3-fluoro-4-[3-(hexylcarbamoyloxy)phenyl]phenyl]acetic acid], the IC50 at ovine COX-1 was 2100 nM; at Rat FAAH it was 63 nM; at human recombinant COX-2 (setting [1]), 240 nM; at human FAAH-1, 16 nM.

As to `CCCCCCNC(=O)Oc1ccccc1-c1ccc(C(C)C(=O)O)cc1F` (stereo not shown) [Example 17, 2-[3-fluoro-4-[2-(hexylcarbamoyloxy)phenyl]phenyl]propanoic acid], the concentration for half-maximal inhibition (IC50) at ovine COX-1 is 720 nM; on Rat FAAH it was 2200 nM; on human recombinant COX-2, greater than 30000 nM; against human FAAH-1 it was 740 nM.

`CCCCCCOC(=O)Nc1cccc(-c2ccc(C(C)C(=O)O)cc2F)c1` (stereo not shown) [Example 18, 2-[3-fluoro-4-[3-(hexoxycarbonylamino)phenyl]phenyl]propanoic acid]: the IC50 at ovine COX-1 was 30 nM; against Rat FAAH, 15000 nM; at human recombinant COX-2 (setting [1]), 170 nM; on human FAAH-1 it was 21000 nM.
